In US20260049085A1, “CYCLIC COMPOUNDS AND METHODS OF USING SAME” (SCHRÖDINGER, INC., priority 2022, published 2026):

target: T1, full-length MALT1 protein His-MALT1(1-824) (Homo sapiens, UniProt Q9UDY8); assay: MALT1 protease assay (Ac-LRSR-AMC tetrapeptide substrate, fluorescence); format: biochemical; details: 1 nM MALT1, 25 μM Ac-LRSR-AMC, 2 h pre-incubation, 8 hr incubation at RT
T1 construct: full-length MALT1 protein His-MALT1(1-824); His (N); made in house; host or cells: baculovirus-infected insect cells
T1 sequence (Q9UDY8 1-824): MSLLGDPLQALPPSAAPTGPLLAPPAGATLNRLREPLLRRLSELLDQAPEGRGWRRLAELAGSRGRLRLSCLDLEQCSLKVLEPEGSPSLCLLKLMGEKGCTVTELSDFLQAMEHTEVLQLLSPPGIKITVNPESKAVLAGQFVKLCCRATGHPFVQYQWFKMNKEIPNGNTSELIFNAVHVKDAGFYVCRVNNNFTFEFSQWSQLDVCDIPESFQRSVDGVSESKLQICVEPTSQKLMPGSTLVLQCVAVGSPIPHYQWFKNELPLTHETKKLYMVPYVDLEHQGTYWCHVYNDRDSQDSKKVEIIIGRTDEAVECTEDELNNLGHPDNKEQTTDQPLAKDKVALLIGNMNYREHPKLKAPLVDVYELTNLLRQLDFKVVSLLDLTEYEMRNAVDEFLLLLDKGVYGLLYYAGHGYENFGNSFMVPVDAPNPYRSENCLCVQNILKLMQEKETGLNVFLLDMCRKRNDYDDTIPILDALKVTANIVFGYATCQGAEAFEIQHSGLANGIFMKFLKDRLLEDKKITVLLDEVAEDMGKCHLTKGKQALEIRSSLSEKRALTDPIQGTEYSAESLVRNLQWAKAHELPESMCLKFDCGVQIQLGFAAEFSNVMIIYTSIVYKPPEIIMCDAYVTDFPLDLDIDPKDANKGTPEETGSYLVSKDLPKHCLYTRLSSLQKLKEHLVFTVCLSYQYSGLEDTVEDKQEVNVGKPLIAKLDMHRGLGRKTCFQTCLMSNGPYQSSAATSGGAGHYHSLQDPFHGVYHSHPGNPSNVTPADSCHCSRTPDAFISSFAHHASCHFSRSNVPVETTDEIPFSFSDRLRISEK
In short: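 Full-length His-MALT1(1-824) from baculovirus-infected insect cells (1 nM) was pre-incubated 2 h at RT with compounds (0.1% DMSO), then 25 μM Ac-LRSR-AMC added in 50 mM Tris pH 7.5, 600 mM sodium citrate, 1 mM DTT, 1 mM EDTA, 0.05% BSA. Fluorescence (ex 355/em 460 nm) read after 8 h at RT; IC50 by non-linear regression of % remaining activity.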

SMILES	IC50 [µM]
C[C@]1(c2cnn(C(F)F)c2)C[C@H](C(=O)Nc2cnc(-n3nccn3)c(Cl)c2)c2cnc3cc(F)nn3c21 (single isomer, unassigned) [Example 24]	< 0.01
Cn1cc([C@@]2(C)C[C@H](C(=O)Nc3cnc(-n4nccn4)c(Cl)c3)c3cnc4cc(Cl)nn4c32)cn1 (single isomer, unassigned) [Example 8]	< 0.01
CCn1cc([C@@]2(C)C[C@H](C(=O)Nc3cnc(-n4nccn4)c(Cl)c3)c3cnc4cc(F)nn4c32)cn1 (single isomer, unassigned) [Example 20]	< 0.01
CC(F)(F)n1cc([C@@]2(C)C[C@H](C(=O)Nc3cnc(-n4nccn4)c(Cl)c3)c3cnc4cc(F)nn4c32)cn1 (single isomer, unassigned) [Example 120]	< 0.01
C[C@]1(c2ccn(C(F)F)n2)C[C@H](C(=O)Nc2cnc(OC(F)F)c(C#N)c2)c2cnc3cc(F)nn3c21 (single isomer, unassigned) [Example 110]	< 0.01
C[C@@]1(c2cnn(C(F)(F)F)c2)C[C@H](C(=O)Nc2cnc(-n3nccn3)c(Cl)c2)c2cnc3cc(F)nn3c21 (single isomer, unassigned) [Example 104]	0.1 to 1
C[C@@]1(c2cnn(C(F)F)c2)C[C@H](C(=O)Nc2cnc(-n3nccn3)c(Cl)c2)c2cnc3cc(F)nn3c21 (single isomer, unassigned) [Example 26]	0.01 to 0.1
C[C@@]1(c2ccn(C(F)F)n2)C[C@H](C(=O)Nc2cnc(OC(F)F)c(C#N)c2)c2cnc3cc(F)nn3c21 (single isomer, unassigned) [Example 112]	0.1 to 1
Cn1ccc([C@]2(C)C[C@H](C(=O)Nc3cnc(-n4nccn4)c(Cl)c3)c3cnc4cc(Cl)nn4c32)n1 (single isomer, unassigned) [Example 78]	0.1 to 1
CC(F)(F)n1cc([C@]2(C)C[C@H](C(=O)Nc3cnc(-n4nccn4)c(Cl)c3)c3cnc4cc(F)nn4c32)cn1 (single isomer, unassigned) [Example 122]	0.1 to 1
Cc1cc(NC(=O)[C@H]2C[C@](C)(c3cnn(C)c3)c3c2cnc2cc(F)nn32)cnc1OC(F)F (single isomer, unassigned) [Example 60]	0.01 to 0.1
C[C@@]1(c2cncs2)C[C@@H](C(=O)Nc2cnc(-n3nccn3)c(Cl)c2)c2cnc3cc(F)nn3c21 (single isomer, unassigned) [Example 37]	≥ 1
Cc1cc(NC(=O)[C@H]2C[C@](C)(c3cnn(C)c3)c3c2cnc2cc(F)nn32)cnc1-n1nccn1 (single isomer, unassigned) [Example 56, trans-2-fluoro-8-methyl-8-(1-methyl-1H-pyrazol-4-yl)-N-(5-methyl-6-(2H-1,2,3-triazol-2-yl)pyridin-3-yl)-7,8-dihydro-6H-cyclopenta[e]pyrazolo[1,5-a]pyrimidine-6-carboxamide]	0.01 to 0.1
COc1cc(NC(=O)[C@H]2C[C@](C)(c3ccn(C(F)F)n3)c3c2cnc2cc(F)nn32)cnc1-c1ncccn1 (single isomer, unassigned) [Example 179]	≥ 1
Cc1cc(NC(=O)[C@@H]2C[C@@](C)(c3cnn(C)c3)c3c2cnc2cc(F)nn32)cnc1OC(F)F (single isomer, unassigned) [Example 61]	≥ 1
Cn1cc([C@]2(C)C[C@@H](C(=O)Nc3cnc(-n4nccn4)c(Cl)c3)c3cnc4c(Cl)c(F)nn4c32)cn1 (single isomer, unassigned) [Example 17]	≥ 1

SMILES	IC50 [µM]
C[C@@]1(c2ccn(C(F)F)n2)C[C@H](C(=O)Nc2ccc(-c3ncccn3)c(C(F)(F)F)c2)c2cnc3cc(F)nn3c21 (single isomer, unassigned) [Example 187]	0.01 to 0.1
COc1cc(NC(=O)[C@@H]2C[C@](C)(c3ccn(C(F)F)n3)c3c2cnc2cc(F)nn32)cnc1-c1ncccn1 (single isomer, unassigned) [Example 182]	≥ 1
Cn1cc([C@@]2(C)C[C@@H](C(=O)Nc3cnc(-n4nccn4)c(Cl)c3)c3cnc4c(Cl)c(F)nn4c32)cn1 (single isomer, unassigned) [Example 19, cis-3-chloro-N-(5-chloro-6-(2H-1,2,3-triazol-2-yl)pyridin-3-yl)-2-fluoro-8-methyl-8-(1-methyl-1H-pyrazol-4-yl)-7,8-dihydro-6H-cyclopenta[e]pyrazolo[1,5-a]pyrimidine-6-carboxamide]	≥ 1
Cn1cc([C@]2(C)C[C@H](C(=O)Nc3ccnc(C(F)(F)F)c3)c3cnc4cc(Cl)nn4c32)cn1 (single isomer, unassigned) [Example 46]	0.1 to 1
Cc1cc(NC(=O)C2CC(C)(c3ccn(C(F)F)n3)c3c2cnc2cc(F)nn32)cnc1-c1ncccn1 (single isomer, unassigned) [Example 184]	≥ 1
C[C@@]1(c2ccn(C(F)F)n2)C[C@@H](C(=O)Nc2ccc(-c3ncccn3)c(Cl)c2)c2cnc3cc(F)nn3c21 (single isomer, unassigned) [Example 190]	≥ 1
CC(F)(F)n1ccc([C@]2(C)C[C@H](C(=O)Nc3cnc(-c4ncccn4)c(Cl)c3)c3cnc4cc(F)nn4c32)n1 (racemic) [Example 170, (cis)-N-(5-chloro-6-(pyrimidin-2-yl)pyridin-3-yl)-8-(1-(1,1-difluoroethyl)-1H-pyrazol-3-yl)-2-fluoro-8-methyl-7,8-dihydro-6H-cyclopenta[e]pyrazolo[1,5-a]pyrimidine-6-carboxamide]	0.1 to 1
Cc1cc2ncc3c(n2n1)[C@](C)(c1ccn(C(F)F)n1)C[C@@H]3C(=O)Nc1cnc(-c2ncccn2)c(C(F)(F)F)c1 (racemic) [Example 196, (cis)-8-(1-(difluoromethyl)-1H-pyrazol-3-yl)-2,8-dimethyl-N-(6-(pyrimidin-2-yl)-5-(trifluoromethyl)pyridin-3-yl)-7,8-dihydro-6H-cyclopenta[e]pyrazolo[1,5-a]pyrimidine-6-carboxamide]	0.1 to 1
CC(F)(F)n1ccc([C@@]2(C)C[C@H](C(=O)Nc3cnc(-c4ncccn4)c(Cl)c3)c3cnc4cc(F)nn4c32)n1 (single isomer, unassigned) [Example 168]	0.01 to 0.1
C[C@]1(c2cnn(C(F)(F)F)c2)C[C@@H](C(=O)Nc2cnc(-n3nccn3)c(Cl)c2)c2cnc3cc(F)nn3c21 (single isomer, unassigned) [Example 105]	0.1 to 1
Cn1nccc1[C@@]1(C)C[C@@H](C(=O)Nc2cnc(-n3nccn3)c(Cl)c2)c2cnc3cc(F)nn3c21 (single isomer, unassigned) [Example 67]	≥ 1
CC1(c2ccn(C(F)F)n2)CC(C(=O)Nc2cnc(-c3ncccn3)c(C(F)F)c2)c2cnc3cc(F)nn3c21 (single isomer, unassigned) [Example 193]	0.01 to 0.1
C[C@@]1(c2cnn(C(F)F)c2)C[C@@H](C(=O)Nc2cnc(-c3ncccn3)c(C(F)(F)F)c2)c2cnc3cc(F)nn3c21 (single isomer, unassigned) [Example 149]	≥ 1
Cn1nccc1[C@]1(C)C[C@H](C(=O)Nc2cnc(-n3nccn3)c(Cl)c2)c2cnc3cc(F)nn3c21 (single isomer, unassigned) [Example 66]	0.1 to 1
C[C@@]1(c2cnn(C(F)F)c2)C[C@H](C(=O)Nc2cnc(OC(F)F)c(C#N)c2)c2cnc3cc(F)nn3c21 (single isomer, unassigned) [Example 94]	0.01 to 0.1

tested on: IL10 secretion, OCI-LY10 cells; assay: Human IL10 secretion assay in OCI-LY10 cells (MSD); format: cell-based; details: 24 h incubation, relative to DMSO set as 100%, read-out: IL-10 Secretion IC50
Protocol: IL10 is one of the cytokines that are regulated via activation of NF-kB signaling. For example, in ABC-DLBCL cell lines, the activated NF-kB signaling leads to increased IL10 secretion. Inhibition of NF-kB signaling has been shown leading to decreased IL10 secretion.
OCI-LY10 cells were seeded in IMEM supplemented with 20% fetal bovine serum at 4.8×10^5 cells per 160 μL per well in 96-well V-bottom cell culture plates (coming, 3894), treated with 120 nL of 3-fold serial compound dilutions, starting at 4 mM. The final vehicle concentration was 0.075% DMSO in all wells. After a 24 h incubation, human IL-10 pre-coated plates (Meso Scale Discovery) were washed 3 times with PBST, and 50 μL culture medium was aspirated into the MSD plate and incubated at 4° C. overnight. The supernatant was then discarded, and the wells were washed 3 times with PBST. SULFO-TAG Anti-human IL-10 Antibody (50×) was diluted 50-fold according to the Meso Scale Protocol, then 25 μL of SULFO-TAG Anti-human IL-10 Antibody (1×) was added. After 2 h of incubation at RT, the supernatant was discarded, and the well was washed 3 times with PBST. 2× read buffer was added and the signal was read on an MSD Sector S600. The effect of a particular compound on IL10 secretion is shown relative to the effect of DMSO; set as 100%. IC50 values (nM) were determined using 4-parametric curve-fitting.

SMILES	IC50 [µM]
C[C@]1(c2cnn(C(F)F)c2)C[C@H](C(=O)Nc2cnc(-n3nccn3)c(Cl)c2)c2cnc3cc(F)nn3c21 (single isomer, unassigned) [Example 24]	0.01 to 0.1
Cn1cc([C@@]2(C)C[C@H](C(=O)Nc3cnc(-n4nccn4)c(Cl)c3)c3cnc4cc(Cl)nn4c32)cn1 (single isomer, unassigned) [Example 8]	0.01 to 0.1
CCn1cc([C@@]2(C)C[C@H](C(=O)Nc3cnc(-n4nccn4)c(Cl)c3)c3cnc4cc(F)nn4c32)cn1 (single isomer, unassigned) [Example 20]	0.01 to 0.1
CC(F)(F)n1cc([C@@]2(C)C[C@H](C(=O)Nc3cnc(-n4nccn4)c(Cl)c3)c3cnc4cc(F)nn4c32)cn1 (single isomer, unassigned) [Example 120]	0.01 to 0.1
C[C@]1(c2ccn(C(F)F)n2)C[C@H](C(=O)Nc2cnc(OC(F)F)c(C#N)c2)c2cnc3cc(F)nn3c21 (single isomer, unassigned) [Example 110]	0.01 to 0.1
